Source: patent publication US7977064B2, “Disheveled PDZ modulators” (Genentech, Inc., priority 2006, dated 2011)
“Also recorded” adds a separate entry of the source. No end group written: not given here.

How the values were obtained:
[1] = tested on: Wnt3a-stimulated β-catenin signaling in HEK293S cells; assay: TOPGLOW luciferase reporter assay in HEK293S cells; format: cell-based
Method: HEK293S cells were transfected with the reporter plasmid pTOPGLOW combined with pRL reporter. Cell extract was prepared and the luciferase activity was measured. The relative luciferase unit (RLU) is TopGlow luciferase activity divided by Renila luciferase activity. The fold of activation is the RLU ratio between the Wnt3a-stimulated and non-stimulated cells. Cells were treated with either 10 μM (light bar) or 20 μM (dark bar) peptide ligands.
(§1) Cell culture, transfection and peptide treatment: HEK293 and H1703 were propagated according to the instructions from American Type Culture Collection. HEK293 cells were transfected with FuGene6 according to the manufacturer's instructions (Roche Molecular Biochemicals) at cell confluence of 50%. H1703 cells were transfected with Lipofectamine according to manufacturer's instruction at cell confluence of 80%. Cells were treated with medium containing peptide (5 μM-40 μM) 24 hours after transfection, and were routinely harvested 24 hours after the peptide treatment for additional assays.
(§2) TOPGLOW assay: Cells were plated in 12-well plates. The TOPGLOW reporter plasmid was transfected transiently into cells as described above. TCF-mediated gene transcription was determined by pTOPGLOW luciferase activity, which was normalized to relative luciferase activities of pRL reporter (cotransfected internal control). All experiments were performed duplicated.

[2] = tested on: β-catenin protein level in HEK293S cells; assay: Western blot of β-catenin protein level in HEK293S cells; format: cell-based; details: 20 μM peptide, 24 hours, compared to DMSO and PEN
Method: HEK293S cells were treated with 20 μM DVLp and PEN for 24 hours. Cell lysate was prepared and subjected to SDS-PAGE. β-catenin was blotted by poly-clonal anti-β-catenin (Genentech, Inc., South San Francisco).
as §1
Western Blot: Harvested cells were lysed with SIC lysis buffer, the supernatant was subjected to SDS-PAGE, which was transferred, blocked and blotted with proper primary antibody by a standard western blot protocol. Fluorescence labeled secondary antibodies (Alexa goat anti-mouse or anti-rabbit) were added and the results were analyzed by Li-core™.

[3] = tested on: Wnt-stimulated β-catenin signaling in NCI-H1703 cells; assay: TOPGLOW luciferase reporter assay in NCI-H1703 cells; format: cell-based, human
Method: NCI-H1703 cells were transfected with the reporter plasmid pTOPGLOW combined with pRL reporter. Cell extract was prepared and the luciferase activity was measured. The relative luciferase unit is TopGlow luciferase activity divided by Renila luciferase activity. The fold of activation is the RLU ratio between the Wnt3a-stimulated or non-stimulated cells.
as §1, §2

NCI-H1703 cells = assay: Alamar Blue cell viability and growth assay; format: cell-based, human
Method: Cells were seeded in black wall 96-well plate in triplicate and treated with various doses of peptide on Day 0 and were incubated at 37° C. in a humid incubator with 5% CO2. After 72 hours, Alamar Blue assay was performed.
Cells were seeded in black wall 96-well plate in triplicate and treated with 10 μM peptide or DMSO on Day 0, and the cell viability was measured by Alamar Blue assay after 24, 48 and 72 hours.
Cell viability assay: Cells were seeded in black wall 96-well plate in triplicate and treated with various doses of peptide on Day 0 and were incubated at 37° C. in a humid incubator with 5% CO2. After 72 hours, Alamar Blue assay was performed according to the instruction from manufacturer. For cell growth profile, the cells were seeded in black wall 96-well plate in triplicate and treated with 10 μM peptide or DMSO on Day 0, and cell viability was measured by Alamar Blue assay after 24, 48 and 72 hours.

Dvl1 = target: T1, Dvl1 (Homo sapiens, UniProt O14640); assay: GST pull-down from HEK293S cell extract, blot with anti-Dvl1; format: binding; details: HEK293 cell lysate, glutathione Sepharose-4B beads
T1 construct: All three endogenous Dvl could be detected in crude cell lysate of HEK293, and could be pulled down by GST-Dvlpep; endogenous in cells; host or cells: HEK293S
T1 sequence (O14640 1-695): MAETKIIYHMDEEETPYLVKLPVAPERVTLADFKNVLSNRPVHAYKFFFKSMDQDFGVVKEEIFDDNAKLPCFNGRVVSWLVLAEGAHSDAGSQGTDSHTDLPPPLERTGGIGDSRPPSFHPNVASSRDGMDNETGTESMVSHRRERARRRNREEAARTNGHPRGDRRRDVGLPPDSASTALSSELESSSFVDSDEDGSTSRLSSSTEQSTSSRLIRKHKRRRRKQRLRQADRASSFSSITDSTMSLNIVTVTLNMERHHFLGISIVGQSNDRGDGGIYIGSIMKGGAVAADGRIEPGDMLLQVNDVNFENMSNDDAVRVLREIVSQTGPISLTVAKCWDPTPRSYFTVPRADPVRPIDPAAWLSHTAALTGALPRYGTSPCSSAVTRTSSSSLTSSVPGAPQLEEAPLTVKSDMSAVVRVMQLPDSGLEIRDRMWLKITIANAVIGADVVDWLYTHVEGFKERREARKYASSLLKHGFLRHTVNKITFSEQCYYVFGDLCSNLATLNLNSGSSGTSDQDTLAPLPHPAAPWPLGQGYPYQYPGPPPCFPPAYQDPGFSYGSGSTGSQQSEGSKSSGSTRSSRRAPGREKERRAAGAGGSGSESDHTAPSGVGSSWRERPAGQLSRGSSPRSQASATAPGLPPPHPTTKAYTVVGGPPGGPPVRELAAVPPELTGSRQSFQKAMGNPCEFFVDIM
Method: (§3) Cell lysate of HEK293S cell was prepared and the whole protein concentration was normalized to 1 mg/ml. GST or GST-DVLpep fusion protein was bound to glutathione Sepharose-4B. Beads carrying protein (2-10 μg) were incubated with cell extract of HEK293S cells overnight at 4° C. The beads were washed with washing buffer (PBS, 0.5% BSA, 0.1% Tween 20) for 10 times and resuspended in SDS sample buffer, incubated at 90° C. for 10 min and the supernatant was subjected to SDS-PAGE. The crude cell extract was also subjected to the same SDS-PAGE. Dvl proteins were blotted by anti-Dvl1, anti-Dvl2, and anti-Dvl3.
(§4) Pull-down Assays—GST or GST-DVLpep fusion protein (GST fused with peptide GGGKWYGWL (SEQ ID NO: 182) at its C-terminus) was bound to glutathione Sepharose-4B following standard protocols, and bound proteins were quantified by SDS-PAGE using known amounts of BSA as standards. Beads carrying protein (2-10 μg) were incubated with cell extract of HEK293S cell overnight at 4° C. The cell extracts were prepared by lysing the cell in SJC lysis buffer. The whole protein concentration was determined by BCA protein kit (Promega; Madison, Wis.) and normalized to 1 mg/ml. […] Bound proteins were blotted by anti-Dvl1, anti-Dvl2 and anti-Dvl3 and analyzed by Li-core™.

Dvl2 = target: T2, Dvl2 (Homo sapiens, UniProt O14641); assay: GST pull-down from HEK293S cell extract, blot with anti-Dvl2; format: binding; details: HEK293 cell lysate, glutathione Sepharose-4B beads
T2 construct: All three endogenous Dvl could be detected in crude cell lysate of HEK293, and could be pulled down by GST-Dvlpep; endogenous in cells; host or cells: HEK293S
T2 sequence (O14641 1-736): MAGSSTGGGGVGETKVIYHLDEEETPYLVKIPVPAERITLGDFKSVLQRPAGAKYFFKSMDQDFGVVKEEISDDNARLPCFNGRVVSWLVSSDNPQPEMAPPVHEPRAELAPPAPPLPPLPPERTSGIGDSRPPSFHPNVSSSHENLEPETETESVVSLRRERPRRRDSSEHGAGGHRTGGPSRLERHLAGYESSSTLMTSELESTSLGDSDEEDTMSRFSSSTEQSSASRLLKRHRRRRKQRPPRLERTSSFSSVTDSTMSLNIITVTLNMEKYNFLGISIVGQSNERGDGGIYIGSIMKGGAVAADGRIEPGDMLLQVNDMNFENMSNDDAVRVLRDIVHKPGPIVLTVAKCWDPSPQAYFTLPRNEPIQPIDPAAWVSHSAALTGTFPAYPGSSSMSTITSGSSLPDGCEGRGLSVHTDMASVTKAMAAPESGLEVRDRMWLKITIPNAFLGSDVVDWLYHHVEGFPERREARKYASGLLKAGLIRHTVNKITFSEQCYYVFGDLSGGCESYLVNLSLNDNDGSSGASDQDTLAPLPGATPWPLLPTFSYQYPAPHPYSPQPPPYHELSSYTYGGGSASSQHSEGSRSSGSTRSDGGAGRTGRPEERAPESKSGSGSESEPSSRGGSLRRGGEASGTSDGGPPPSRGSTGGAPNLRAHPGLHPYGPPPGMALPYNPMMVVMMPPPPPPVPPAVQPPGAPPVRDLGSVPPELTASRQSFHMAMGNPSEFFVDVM
Method: as §3, §4

Dvl3 = target: T3, Dvl3 (Homo sapiens, UniProt Q92997); assay: GST pull-down from HEK293S cell extract, blot with anti-Dvl3; format: binding; details: HEK293 cell lysate, glutathione Sepharose-4B beads
T3 construct: All three endogenous Dvl could be detected in crude cell lysate of HEK293, and could be pulled down by GST-Dvlpep; endogenous in cells; host or cells: HEK293S
T3 sequence (Q92997 1-716): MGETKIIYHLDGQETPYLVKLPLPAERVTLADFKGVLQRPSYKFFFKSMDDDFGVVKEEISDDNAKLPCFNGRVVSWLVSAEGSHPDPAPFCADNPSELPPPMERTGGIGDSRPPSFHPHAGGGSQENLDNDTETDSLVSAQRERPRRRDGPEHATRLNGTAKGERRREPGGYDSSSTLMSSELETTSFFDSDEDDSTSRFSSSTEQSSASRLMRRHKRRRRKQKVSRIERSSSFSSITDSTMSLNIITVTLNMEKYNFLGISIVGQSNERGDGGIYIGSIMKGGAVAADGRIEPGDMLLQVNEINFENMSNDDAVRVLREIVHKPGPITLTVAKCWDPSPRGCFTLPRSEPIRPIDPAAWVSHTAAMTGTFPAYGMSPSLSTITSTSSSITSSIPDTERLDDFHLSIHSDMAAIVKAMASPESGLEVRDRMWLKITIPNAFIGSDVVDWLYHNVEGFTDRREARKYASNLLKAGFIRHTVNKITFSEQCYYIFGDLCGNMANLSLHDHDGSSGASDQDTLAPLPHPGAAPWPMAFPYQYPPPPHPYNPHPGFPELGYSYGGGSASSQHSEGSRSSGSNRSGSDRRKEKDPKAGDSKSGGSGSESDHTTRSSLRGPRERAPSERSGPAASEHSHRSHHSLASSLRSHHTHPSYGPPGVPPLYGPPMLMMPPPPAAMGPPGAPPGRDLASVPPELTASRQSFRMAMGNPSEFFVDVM
Method: as §3, §4

Substance | Effect on Wnt3a-stimulated transcriptional activity (TopGlow) ([1]; HEK293S cells, peptide up to 20 μM in medium) | Dose dependence of inhibition of Wnt-stimulated β-catenin signaling ([1]; HEK293S cells, two independent experiments) | Inhibition of Wnt3a-stimulated transcriptional activity ([1]; HEK293 cells, peptide 5-20 μM) | β-catenin level in whole cell lysate upon Wnt3a stimulation [2] | Effect on Wnt-stimulated β-catenin signaling / Tcf-stimulated transcriptional activity (TopGlow) [3] | Cell growth profile (NCI-H1703 cells; NCI-H1703, 10 μM peptide, 24, 48 and 72 hours) | Cell viability with Wnt3a stimulation (NCI-H1703 cells; NCI-H1703, 72 hours, peptide dose of 5 μM) | Cell viability without Wnt3a stimulation (NCI-H1703 cells; NCI-H1703, 72 hours, peptide dose over 10 μM) | Pull-down of endogenous Dvl1 (Dvl1) | Pull-down of endogenous Dvl2 (Dvl2) | Pull-down of endogenous Dvl3 (Dvl3)
Ac-RQIKIWFQNRRMKWKKKWYGWL [DVLp_C] | inhibited Wnt3a-stimulated transcriptional activity significantly; also recorded: significantly blocked the Wnt-stimulated increase in β-catenin signaling | dose-dependent | about 50% | significantly lower β-catenin levels; also recorded: reduced the Wnt-stimulated increase in β-catenin protein level | inhibited by DVLp_C treatment significantly; also recorded: blocked the Wnt-stimulated increase in β-catenin signaling | much slower than that of DMSO or PEN-treated cells; also recorded: effectively suppressed the cell growth | lower viability of DVLp_C-treated cells compared to PEN-treated cells | much lower viability than PEN-treated cells |  |  | 
GST-Dvlpep: GST fused with peptide GGGKWYGWL (SEQ ID NO: 182) at its C-terminus ({GST}-GGGKWYGWL) |  |  |  |  |  |  |  |  | pulled down | pulled down | pulled down
